Our source for the Kd values is PMC7298650 (iScience, 2020).

As usually defined, the Kd is the free concentration of one partner at which half of the binding sites on the other are occupied at equilibrium, for simple one-to-one binding. Higher therefore signals weaker binding.

Where two headings read alike, the source gives them in different places.

Experiment [1] concerns the target T1, insulin receptor (Homo sapiens, UniProt P06213). As to the kind of experiment: surface plasmon resonance. The experiment is classed as binding. A general note: SPR reads the build-up and loss of mass on a sensor chip optically.
The target of experiment [2] is T1, insulin receptor. As to the kind of experiment: surface plasmon resonance. The experiment is classed as binding. The source holds these as a separate data set.

T1 sequence (P06213 28-758): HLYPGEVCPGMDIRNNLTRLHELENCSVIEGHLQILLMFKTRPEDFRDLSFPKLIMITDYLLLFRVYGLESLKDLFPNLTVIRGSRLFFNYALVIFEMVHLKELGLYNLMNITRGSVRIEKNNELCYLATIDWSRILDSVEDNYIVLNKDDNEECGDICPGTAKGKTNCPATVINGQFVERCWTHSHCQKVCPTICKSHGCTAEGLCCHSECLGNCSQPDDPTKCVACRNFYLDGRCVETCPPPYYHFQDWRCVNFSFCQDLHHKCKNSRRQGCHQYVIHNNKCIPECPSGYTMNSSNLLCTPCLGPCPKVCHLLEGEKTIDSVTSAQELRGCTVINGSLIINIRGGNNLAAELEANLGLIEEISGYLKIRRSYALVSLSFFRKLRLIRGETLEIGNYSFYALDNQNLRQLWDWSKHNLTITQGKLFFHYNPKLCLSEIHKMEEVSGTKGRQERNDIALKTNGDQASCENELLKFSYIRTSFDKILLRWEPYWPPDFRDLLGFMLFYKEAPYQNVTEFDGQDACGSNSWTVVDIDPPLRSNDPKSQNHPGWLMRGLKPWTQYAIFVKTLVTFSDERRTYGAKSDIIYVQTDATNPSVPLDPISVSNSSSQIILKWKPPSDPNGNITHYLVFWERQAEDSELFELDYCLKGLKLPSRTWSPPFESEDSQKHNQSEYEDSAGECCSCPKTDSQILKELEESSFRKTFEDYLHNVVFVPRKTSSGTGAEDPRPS
T1 sequence (P06213 763-956): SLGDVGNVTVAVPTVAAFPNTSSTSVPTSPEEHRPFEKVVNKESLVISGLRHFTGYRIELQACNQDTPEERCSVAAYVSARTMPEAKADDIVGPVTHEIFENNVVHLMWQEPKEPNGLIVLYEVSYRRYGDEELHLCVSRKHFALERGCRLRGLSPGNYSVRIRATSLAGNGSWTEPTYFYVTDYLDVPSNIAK

Take `CN(C)C(=N)N=C(N)N` [Metformin]: in experiment [1], the Kd is about 84 µM.
With `O=c1c2ccccc2nc2n1CCc1c-2[nH]c2ccccc12` [Rut-0, Rutaecarpine], the Kd in experiment [2] is about 14 µM.
